According to PubChem BioAssay AID212 (DTP/NCI, 2004):
Values joined by “and” are separate entries in the source; they are usually repeats but may differ in a detail not shown here. Identical values can stand only once. Records with an inconclusive call do not appear.

Tested on: BDF1 mice, colon carcinoma 38 sc, T/C %
Test: NCI In Vivo Anticancer Drug Screen. Data for tumor model Colon Carcinoma 38 (subcutaneous) in B6D2F1 (BDF1) mice
Settings: endpoint: median tumor weight (est.), higher = larger tumour
In short: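 Mice with transplanted tumors are treated with compound or vehicle. Survival or tumor size is then measured in both groups. The ratio of treated to control gives the reported figure.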

[1] = dose: 25.0 mg/kg/injection, schedule: Q07DX002 (ip), vehicle: saline with Tween-80
[2] = dose: 50.0 mg/kg/injection, schedule: Q07DX002 (ip), vehicle: saline with Tween-80
[3] = dose: 100.0 mg/kg/injection, schedule: Q07DX002 (ip), vehicle: saline with Tween-80
[4] = dose: 200.0 mg/kg/injection, schedule: Q07DX002 (ip), vehicle: saline with Tween-80
[5] = dose: 400.0 mg/kg/injection, schedule: Q07DX002 (ip), vehicle: saline with Tween-80
[6] = dose: 12.5 mg/kg/injection, schedule: Q07DX002 (ip), vehicle: Klucel (hydroxypropylcellulose) (HPC)
[7] = dose: 25.0 mg/kg/injection, schedule: Q07DX002 (ip), vehicle: Klucel (hydroxypropylcellulose) (HPC)
[8] = dose: 50.0 mg/kg/injection, schedule: Q07DX002 (ip), vehicle: Klucel (hydroxypropylcellulose) (HPC)
[9] = dose: 100.0 mg/kg/injection, schedule: Q07DX002 (ip), vehicle: Klucel (hydroxypropylcellulose) (HPC)
[10] = dose: 200.0 mg/kg/injection, schedule: Q07DX002 (ip), vehicle: Klucel (hydroxypropylcellulose) (HPC)
[11] = dose: 50.0 mg/kg/injection, schedule: Q07DX003 (ip), vehicle: Klucel (hydroxypropylcellulose) (HPC)
[12] = dose: 100.0 mg/kg/injection, schedule: Q07DX003 (ip), vehicle: Klucel (hydroxypropylcellulose) (HPC)
[13] = dose: 25.0 mg/kg/injection, schedule: Q07DX003 (ip), vehicle: saline with Tween-80
[14] = dose: 50.0 mg/kg/injection, schedule: Q07DX003 (ip), vehicle: saline with Tween-80

C1OCN2CSCC12 (stereo not drawn)
T/C [1]: 97 % of control
T/C [2]: 67 % of control
T/C [3]: 85 % of control
T/C [4]: 79 % of control
T/C [5]: 80 % of control

Clc1ccc(C(c2ccc(Cl)cc2)C(Cl)(Cl)Cl)cc1
T/C (dose: 4.0 mg/kg/injection, schedule: Q07DX002 (ip), vehicle: Klucel (hydroxypropylcellulose) (HPC)): 123 % of control
T/C (dose: 8.0 mg/kg/injection, schedule: Q07DX002 (ip), vehicle: Klucel (hydroxypropylcellulose) (HPC)): 94 % of control
T/C (dose: 16.0 mg/kg/injection, schedule: Q07DX002 (ip), vehicle: Klucel (hydroxypropylcellulose) (HPC)): 112 % of control
T/C (dose: 32.0 mg/kg/injection, schedule: Q07DX002 (ip), vehicle: Klucel (hydroxypropylcellulose) (HPC)): 122 % of control

COC(C(=O)C(O)C(C)O)C1CC2C=C3C=C(OC4CC(OC5CC(O)C(OC)C(C)O5)C(OC(C)=O)C(C)O4)C(C)C(=O)C3=C(O)C2=C(O)C1OC1CC(OC2CC(OC3CC(C)(O)C(O)C(C)O3)C(O)C(C)O2)C(O)C(C)O1 (stereo not drawn)
T/C (dose: 1.0 mg/kg/injection, schedule: Q07DX002 (ip), vehicle: saline with Tween-80): 121 % of control
T/C (dose: 2.0 mg/kg/injection, schedule: Q07DX002 (ip), vehicle: saline with Tween-80): 150 % of control
T/C (dose: 4.0 mg/kg/injection, schedule: Q07DX002 (ip), vehicle: saline with Tween-80): 112 % of control
T/C (dose: 8.0 mg/kg/injection, schedule: Q07DX002 (ip), vehicle: saline with Tween-80): 114 % of control
T/C (dose: 16.0 mg/kg/injection, schedule: Q07DX002 (ip), vehicle: saline with Tween-80): 111 % of control

O=C(O)CSc1nc(-c2ccccc2)c(-c2ccccc2)n1-c1ccccn1
T/C [6]: 92 % of control
T/C [7]: 83 % of control
T/C (dose: 25.0 mg/kg/injection, schedule: Q07DX002 (ip), vehicle: water): 114 % of control
T/C [8]: 72 % of control
T/C (dose: 50.0 mg/kg/injection, schedule: Q07DX002 (ip), vehicle: water): 112 % of control
T/C [9]: 106 % of control
T/C (dose: 100.0 mg/kg/injection, schedule: Q07DX002 (ip), vehicle: water): 95 % of control
T/C [10]: 73 % of control
T/C (dose: 200.0 mg/kg/injection, schedule: Q07DX002 (ip), vehicle: water): 89 % of control

CCCCCC(=O)O[C@]1(C(C)=O)CC[C@H]2[C@@H]3CCC4=CC(=O)CC[C@]4(C)[C@H]3CC[C@@]21C
T/C (dose: 25.0 mg/kg/injection, schedule: Q07DX003 (ip), vehicle: Klucel (hydroxypropylcellulose) (HPC)): 78 % of control
T/C [11]: 62 % of control
T/C [12]: 81 % of control
T/C (dose: 200.0 mg/kg/injection, schedule: Q07DX003 (ip), vehicle: Klucel (hydroxypropylcellulose) (HPC)): 82 % of control
T/C (dose: 400.0 mg/kg/injection, schedule: Q07DX003 (ip), vehicle: Klucel (hydroxypropylcellulose) (HPC)): 49 % of control

CCN(CC)CCOC(=O)Cc1cc(OC)cc2c(=O)cc(-c3ccccc3)oc12
T/C [6]: 65 % of control
T/C [7]: 82 % of control
T/C [8]: 56 % of control
T/C [9]: 111 % of control
T/C [10]: 104 % of control

Cc1c2ccncc2c(C)c2c1[nH]c1ccccc12
T/C (dose: 10.0 mg/kg/injection, schedule: Q07DX002 (ip), vehicle: distilled water + Tween-80): 63 % of control
T/C [6]: 54 % of control and 75 % of control
T/C (dose: 12.5 mg/kg/injection, schedule: Q07DX003 (ip), vehicle: saline with Tween-80): 42 % of control
T/C (dose: 12.5 mg/kg/injection, schedule: Q07DX003 (ip), vehicle: saline): 78 % of control
T/C (dose: 20.0 mg/kg/injection, schedule: Q07DX002 (ip), vehicle: distilled water + Tween-80): 83 % of control and 103 % of control
T/C (dose: 20.0 mg/kg/injection, schedule: Q07DX002 (ip), vehicle: water): 61 % of control
T/C [13]: 38 % of control
T/C (dose: 25.0 mg/kg/injection, schedule: Q07DX003 (ip), vehicle: saline): 69 % of control
T/C (dose: 40.0 mg/kg/injection, schedule: Q07DX002 (ip), vehicle: water): 9 % of control
T/C [11]: 45 % of control and 55 % of control
T/C [14]: 28 % of control
T/C (dose: 50.0 mg/kg/injection, schedule: Q07DX003 (ip), vehicle: saline): 67 % of control
T/C (dose: 80.0 mg/kg/injection, schedule: Q07DX002 (ip), vehicle: distilled water + Tween-80): 7 % of control
T/C [9]: 12 % of control and 25 % of control
T/C [12]: 12 % of control and 20 % of control
T/C (dose: 100.0 mg/kg/injection, schedule: Q07DX003 (ip), vehicle: saline with Tween-80): 38 % of control
T/C (dose: 100.0 mg/kg/injection, schedule: Q07DX003 (ip), vehicle: saline): 33 % of control
T/C (dose: 200.0 mg/kg/injection, schedule: Q07DX003 (ip), vehicle: saline with Tween-80): 1 % of control
T/C (dose: 200.0 mg/kg/injection, schedule: Q07DX003 (ip), vehicle: saline): 2 % of control

CC(=O)O[C@@H]1[C@@H](O)C2=C3[C@]4(C)[C@@H]1C(C)(C)C(=O)C[C@@H]4[C@]3(O)[C@H](OC(C)=O)[C@@]1(C[C@@H]1C)C2=O
T/C (dose: 3.12 mg/kg/injection, schedule: Q07DX003 (ip), vehicle: saline with Tween-80): 97 % of control
T/C (dose: 6.25 mg/kg/injection, schedule: Q07DX003 (ip), vehicle: saline with Tween-80): 93 % of control
T/C [13]: 86 % of control
T/C [14]: 64 % of control

O=C1C=C[C@H](O)[C@@]2(CO)O[C@@H]12
T/C (dose: 0.62 mg/kg/injection, schedule: Q07DX002 (ip), vehicle: saline with Tween-80): 104 % of control
T/C (dose: 1.25 mg/kg/injection, schedule: Q07DX002 (ip), vehicle: saline with Tween-80): 116 % of control
T/C (dose: 2.5 mg/kg/injection, schedule: Q07DX002 (ip), vehicle: saline with Tween-80): 69 % of control
T/C (dose: 5.0 mg/kg/injection, schedule: Q07DX002 (ip), vehicle: saline with Tween-80): 79 % of control
T/C (dose: 10.0 mg/kg/injection, schedule: Q07DX002 (ip), vehicle: saline with Tween-80): 97 % of control

Cc1ccc(S(=O)(=O)N/N=C/C(Br)=C(/Br)C(=O)O)cc1
T/C [7]: 94 % of control
T/C [9]: 124 % of control and 100 % of control
T/C [10]: 88 % of control
T/C (dose: 400.0 mg/kg/injection, schedule: Q07DX002 (ip), vehicle: Klucel (hydroxypropylcellulose) (HPC)): 72 % of control

C/C=C(\C)c1cc(=O)c2c(C)cc3c(c2o1)C(=O)c1c(O)c(C2CC(C)(N(C)C)C(OC(C)=O)C(C)O2)cc(C2CC(N(C)C)C(O)C(C)O2)c1C3=O (stereo not drawn)
T/C (dose: 0.31 mg/kg/injection, schedule: Q07DX002 (ip), vehicle: saline): 78 % of control
T/C (dose: 0.31 mg/kg/injection, schedule: Q07DX002 (ip), vehicle: suspension in saline): 84 % of control
T/C (dose: 0.62 mg/kg/injection, schedule: Q07DX002 (ip), vehicle: saline): 75 % of control and 92 % of control
T/C (dose: 0.62 mg/kg/injection, schedule: Q07DX002 (ip), vehicle: suspension in saline): 97 % of control
T/C (dose: 1.25 mg/kg/injection, schedule: Q07DX002 (ip), vehicle: saline): 97 % of control
T/C (dose: 1.25 mg/kg/injection, schedule: Q07DX002 (ip), vehicle: suspension in saline): 81 % of control
T/C (dose: 2.5 mg/kg/injection, schedule: Q07DX002 (ip), vehicle: saline): 116 % of control and 105 % of control
T/C (dose: 2.5 mg/kg/injection, schedule: Q07DX002 (ip), vehicle: suspension in saline): 90 % of control
T/C (dose: 5.0 mg/kg/injection, schedule: Q07DX002 (ip), vehicle: saline): 86 % of control
T/C (dose: 5.0 mg/kg/injection, schedule: Q07DX002 (ip), vehicle: suspension in saline): 97 % of control
T/C (dose: 10.0 mg/kg/injection, schedule: Q07DX002 (ip), vehicle: saline): 97 % of control
T/C (dose: 10.0 mg/kg/injection, schedule: Q07DX002 (ip), vehicle: suspension in saline): 120 % of control

CC1(C)OC1CS(=O)c1ccccc1 (stereo not drawn)
T/C [1]: 110 % of control
T/C [2]: 105 % of control
T/C [3]: 92 % of control
T/C [4]: 86 % of control
T/C [5]: 105 % of control
T/C (dose: 800.0 mg/kg/injection, schedule: Q07DX002 (ip), vehicle: saline with Tween-80): 76 % of control
